From patent publication US5834500A, “Sulfur-containing heterocyclic bradykinin antagonists, process for their preparation, and their use” (Hoechst Aktiengesellschaft, priority 1996, dated 1998) come the findings set out here.

Structures are written as SMILES.

In one assay the target is T1, bradykinin B2 receptor (Cavia porcellus, UniProt O70526).
T1 construct: from tissue; host or cells: guinea pig ileum membranes
T1 sequence (O70526 1-372): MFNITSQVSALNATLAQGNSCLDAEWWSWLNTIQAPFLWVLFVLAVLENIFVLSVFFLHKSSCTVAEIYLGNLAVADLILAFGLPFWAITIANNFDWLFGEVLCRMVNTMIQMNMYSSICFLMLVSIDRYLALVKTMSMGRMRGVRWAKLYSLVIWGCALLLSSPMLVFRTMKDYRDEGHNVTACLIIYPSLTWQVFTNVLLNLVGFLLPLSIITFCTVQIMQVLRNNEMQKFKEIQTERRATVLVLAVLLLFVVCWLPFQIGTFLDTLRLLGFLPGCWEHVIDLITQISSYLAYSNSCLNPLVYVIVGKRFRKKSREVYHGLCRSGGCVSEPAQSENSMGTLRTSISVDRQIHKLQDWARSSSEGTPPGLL
Briefly: binding to the bradykinin B2 receptor of guinea pig ileum (3H-bradykinin competition). As to conditions: guinea pig ileum membranes, 3H-bradykinin 0.25 to 0.3 nmol/l; read-out: antagonistic effect expressed as IC50-value on the guinea pig B2 receptor. Here is the method:
The method of measuring binding to the bradykinin B2 receptor of guinea pig ileum is described below (R. B. Innis et al., Proc. NatI. Acad. Sci. USA; 17 (1981) 2630): […] Ligand: ^3 H-BRADYKININ (from NEN Du Pont) 2. Buffer mixtures: a) TES buffer: 25 mM TES (SIGMA, Cat. No.: T-4152) […] Cat. No.: P-9375) b) Incubation buffer: 25 mM TES (SIGMA; Cat. No.: T-4152) […] Cat. No.: P-9375) […] Cat. No.: A-7906) 140 μg/ml bacitracin (SIGMA; Cat. No.: B-0125) […] Cat. No.: D-0632) […] Both buffers are adjusted to pH 6.8 with 5 molar NaOH. 3. Membrane preparation: Guinea pig ilea are roughly freed of intestinal contents by carefully smoothing them out and are cleansed in 0.9% NaCl solution. The approx. 2 cm-long ilea pieces are transferred into ice-cold TES buffer (approx. 1 g/10 ml) and homogenized with an Ultraturrax for approx. 30 sec. in an ice bath. The homogenate is then filtered through 3 layers of gauze and the filtrate is centrifuged at 50,000 g for 10 minutes. The supernatant is discarded and the pellet is rehomogenized in the same volume of TES buffer and centrifuged once again at 50,000 g for 10 minutes. The pellet is rehomogenized in incubation buffer (approx. 1 g/5 ml) and frozen down at -70° C., in 2 ml aliquots, in cryotubes. The protein concentration of the finished membrane suspension is determined by the LOWRY method and should be approx. 15 μg/100 μl. 4. Binding test: All the incubations are carried out, at room temperature for 60 minutes, in a 200 μl volume on microtiter plates (96×300 μl). All the mixtures are in incubation buffer. For this, 50 μl of the radioligand, 50 μl of the preparation to be tested and 100 μl of the membrane suspension are pipetted consecutively into the wells of the microtiter plate. b) Competition experiments (IC50): A fixed quantity of the radioactive ligand (from 0.25 to 0.3 nmol/l ^3 H-bradykinin) and different concentrations of the unlabeled agonists or antagonists are employed for this purpose. 50 μl of the preparations or the standards to be tested, are added, in concentrations of from 10^-5 to 10^-10 mol/l, to in each case 50 μl of the ^3 H-bradykinin solution and the reaction is started by adding 100 μl of membrane suspension. […] As a rule, the preparations which are to be tested for competition are dissolved, at a concentration of 1 mmol/l, in dimethyl sulfoxide (DMSO) and subsequently subjected to further dilution with DMSO. This solution is then diluted 1:25 with incubation buffer. […] The filters, which are still moist, are punched out into mini scintillation vials, which are filled with 3 ml of scintillator. After having been left to soak for approx. 12 hours, the samples are shaken up briefly and measured in a beta counter. c) Screening: […] 4. Evaluation: The evaluation is effected by means of the LIGAND program package (McPherrson, Minson & Rodbard, Marketing: Elsevier-BIOSOFT), which performs the necessary calculations for determining IC50 and Ki values. This program also performs graphic depictions of the saturation and displacement curves and also SCATCHARD plots, HILL plots or HOFSTEE plots.

Assay [1] relates to isolated guinea pig pulmonary artery. Briefly: bradykinin-induced contraction of isolated guinea pig pulmonary artery. The following applies: Cavia porcellus, 10 min; isolated vessel strip, contraction by 2×10^-7 mol/l bradykinin, 10 minutes exposure; read-out: antagonistic effect expressed as IC50-value on the guinea pig pulmonary artery. As for the experimental part:
For testing the novel compounds on the isolated pulmonary artery, guinea pigs (Dunkin Hartley) having a weight of 400-450 g are killed by a blow to the neck.
The thorax is opened and the pulmonary artery is carefully dissected out. The surrounding tissue is carefully removed and the pulmonary artery is cut open spirally at an angle of 45°.
The blood vessel strip, which is 2.5 cm long and 3-4 mm wide, is fastened in a 10 ml-capacity organ bath which is filled with Ringer solution. […]
95% O2 and 5% CO2 is bubbled through the solution, which is warmed to 37° C. The pH is 7.4 and the initial load on the vessel strip is 1.0 g.
The isotonic contraction changes are detected with a lever attachment and a high frequency modem (distance measuring device) from Hugo Sachs and registered on a potentiometric recorder (BEC, Goerz Metrawatt SE 460).
The experiment is started after 1 hour of equilibration. Once the maximum sensitivity of the vessel strips to 2×10^-7 mol/l bradykinin has been reached--bradykinin causes the vessel strips to contract--the test compounds, at doses of 5×10^-8 -1×10^-5 mol/l, are allowed to exert their effect for 10 minutes in each case and, after bradykinin has been added once again, the decrease in the effect of bradykinin is compared with the control.

Broadly, the IC50 is the concentration that inhibits the measured activity by half. Consider `Cc1nc2c(OCc3c(Cl)ccc(N(C)C(=O)CNC(=O)/C=C/c4ccc(C(F)(F)F)cc4)c3Cl)cccc2s1` [Example 3], for which the results for the half-maximal inhibitory concentration (IC50) (at bradykinin B2 receptor; in assay [1]) were under 100 nM and under 1000 nM, respectively.

Turning to `C=C/C=C/C(=O)NCC(=O)N(C)c1ccc(Cl)c(COc2cccc3sc(C)nc23)c1Cl` [Example 6], the IC50 on bradykinin B2 receptor was under 100 nM; in assay [1], under 1000 nM.

`COc1cccc(/C=C/C(=O)NCC(=O)N(C)c2ccc(Cl)c(COc3cccc4sc(C)nc34)c2Cl)c1` [Example 11]: the concentration for half-maximal inhibition (IC50) was under 100 nM at bradykinin B2 receptor and under 1000 nM in assay [1].

Regarding `Cc1nc2c(OCc3c(Cl)ccc(N(C)C(=O)CNC(=O)/C=C/c4ccco4)c3Cl)cccc2s1` [Example 12], the figures for the IC50 (on bradykinin B2 receptor; in assay [1]) were under 100 nM and under 1000 nM, respectively.

As to `Cc1ccc(/C=C/C(=O)NCC(=O)N(C)c2ccc(Cl)c(COc3cccc4sc(C)nc34)c2Cl)cc1` [Example 23], the IC50 at bradykinin B2 receptor is under 100 nM; in assay [1], under 1000 nM.

Turning to `Cc1nc2c(OCc3c(Cl)ccc(N(C)C(=O)CNC(=O)COc4ccc(OC(F)(F)F)cc4)c3Cl)cccc2s1` [Example 37], the IC50 at bradykinin B2 receptor was under 100 nM; in assay [1], under 1000 nM.
